Assay [1] relates to MiaPaCa2 cells. Nature of the assay: Induction of apoptosis in MiaPaCa2 cells by FACS analysis. The assay is classed as cell-based. Conditions: 72 hours, FIG. 2A.
Assay [2] deals with Xenograft tumors derived from BxPC3 cells. Nature of the assay: BxPC3 xenograft tumor growth in nude mice (Biological Example 8A). The assay is classed as in vivo. The note with it: BxPC3 subcutaneous flank tumors in nude mice, once daily dosing, 30 days; FIG. 4A. The procedure:
Whether autophagy inhibition increased the activity of Compound A in vivo was explored. Xenograft tumors derived from BxPC3 cells were grown subcutaneously as flank tumors in nude mice to a size of 150 mm^3. Treatment with Compound A, alone or in combination with choloroquine, was administered for 30 days. Treatment with Compound A along and Compound A in combination with chloroquine was carried out by once daily dosing as indicated. Tumor volume was measured regularly. Tumors were harvested from euthanized mice for protein expression analyses.

In the next assay the test system is PDAC cell lines. As to the kind of experiment: Apoptosis induction in PDAC cell lines (PI/Annexin V, FACS). Conditions: representative subset of PDAC cell lines, dual staining with PI and Annexin V, FIG. 1. It counts as cell-based.
In assay [3] the test system is MiaPaCa2 cells. As to the kind of experiment: Induction of autophagy by acridine orange staining and FACS analysis. The assay is classed as cell-based. The note with it: FIG. 2B. The source says:
Occurrence of cytoplasmic vacuoles in tumor cells treated with dual-targeted inhibitors are consistently observed. […] A variety of assays, including LC3-I to LC3-II conversion, acridin orange supravital staining, and MDC staining indicate whether treatment of pancreatic cancer cells with a compound of the invention will induce autophagy.
In general terms: A flow cytometer gives signals particle by particle.

The subject of the next assay is BxPC-3 cells. As to the kind of experiment: BxPC-3 xenograft tumor growth in Nu/Nu mice (Biological Example 8B). The assay is classed as in vivo. The note with it: BxPC-3 s.c. in Nu/Nu mice; Compound A 30 mg/kg oral gavage, CQ 50 mg/kg i.p., 5 times/week, 28 days; FIG. 4B. The procedure: Female 7-9 weeks old Nu/Nu mice (Harlan, FoxN 1/nude) were inoculated s.c. with 10^7 BxPC-3 cells. Mice were monitored according to the protocol approved by the University of California, San Francisco Institutional Animal Care and Use Committee. When tumors reached about 100 mm^3, mice were randomly assigned to one of […] treatment groups: vehicle control, Compound A 30 mg/kg, Chloroquine (CQ) 50 mg/kg, Compound A+CQ. Compound A was solubilized in water/10 mM HCl, Compound B was dissolved in water, both drugs were administered by oral gavage once a day 5 times/week. CQ was dissolved in saline and injected i.p daily, 5 times/week. Each treatment regimen was tested in cohorts of eight mice and the dosing was continued for 28 days. Tumor sizes were measured twice weekly in two dimensions using a caliper, tumor size (mm^3) was calculated as (length×width^2)/2. Animals were monitored for toxicity by measuring body weight twice weekly and monitoring overall activity.
Dbata are expressed as means+/−standard deviation. Statistical analysis was performed by using Student's t-test (two-tailed). P values of <0.05 were considered significant.

The subject of the next assay is pancreatic cancer cells. As to the kind of experiment: Effect of autophagy inhibitors on autophagy and apoptosis of treated cells. It counts as cell-based. From the text:
We therefore tested whether inhibitors of autophagy or apoptosis could shift the cellular response from autophagy to apoptosis or vice versa.

For the molecule `CCn1c(=O)c(-c2ccn[nH]2)cc2c(C)nc(N)nc21` [Compound A], the induction of apoptosis entry with MiaPaCa2 cells [1] is “induction of apoptosis”. Also, the “tumor growth (tumor volume)” value in assay [2] is listed as “no clear growth-inhibitory effect”. Further, in the assay on PDAC cell lines, the apoptosis induction entry is recorded as “apoptosis induction”. Further, the induction of autophagy entry in the assay on MiaPaCa2 cells [3] was “induction of autophagy”. For the same molecule, the “tumor growth (tumor size)” value in the assay on BxPC-3 cells is on record as “no clear growth-inhibitory effect”.
Take `Cn1cnc(N)c2ncnc1-2` [Example 3-MA, 3-methyladenine]: the autophagy entry in the assay with pancreatic cancer cells (autophagy inhibitor added to cells treated with dual-targeted inhibitor, data not shown) is on record as “inhibited autophagy”. For the same molecule, the “fraction of cells undergoing apoptosis” value in the assay on pancreatic cancer cells (autophagy inhibitor added, FIG. 3: Compound A with or without CQ 5 mM, 72 hours, PI/Annexin-V FACS) was “significantly increased”.
